Measured values reported in PMC9329436, “Optimization of the 4-anilinoquin(az)oline scaffold as epidermal growth factor receptor (EGFR) inhibitors for chordoma utilizing a toxicology profiling assay platform” (Scientific Reports, 2022).
Like-named read-outs stand apart in the source and are kept apart here.

What was measured:
Format in all cases: biochemical
[1] = target: 320 wild-type protein kinases (Homo sapiens, UniProt P22455); conditions: singlicate
Description: (§1) Table S4. Profiling of two compounds at two concentrations against 320 wild-type protein kinases; singlicate measurement; Residual activities (% of control).

[2] = target: 320 wild-type protein kinases (Homo sapiens, UniProt P30291); conditions: kinase WEE1, singlicate
Description: as §1

[3] = target: 320 wild-type protein kinases (Homo sapiens, UniProt P34947); conditions: singlicate
Description: as §1

[4] = target: T1, 320 wild-type protein kinases (Homo sapiens, UniProt P36897); conditions: kinase TGFB-R1, singlicate
T1 sequence (P36897 34-503): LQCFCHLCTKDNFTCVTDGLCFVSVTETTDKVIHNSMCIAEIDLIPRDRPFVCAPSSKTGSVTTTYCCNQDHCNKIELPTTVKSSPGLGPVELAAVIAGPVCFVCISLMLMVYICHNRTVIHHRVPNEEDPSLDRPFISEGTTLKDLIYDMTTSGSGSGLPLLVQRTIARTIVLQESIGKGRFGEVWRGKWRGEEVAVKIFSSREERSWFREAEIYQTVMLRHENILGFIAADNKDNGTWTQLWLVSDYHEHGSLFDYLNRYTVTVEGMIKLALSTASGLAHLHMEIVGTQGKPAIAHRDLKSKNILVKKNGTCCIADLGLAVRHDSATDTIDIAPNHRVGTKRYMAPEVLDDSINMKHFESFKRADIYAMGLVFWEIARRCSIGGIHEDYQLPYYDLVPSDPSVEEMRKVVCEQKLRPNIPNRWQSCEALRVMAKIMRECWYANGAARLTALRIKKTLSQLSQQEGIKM
Description: as §1

[5] = target: T2, 320 wild-type protein kinases (Homo sapiens, UniProt P42680); conditions: kinase TEC, singlicate
T2 sequence (P42680 1-631): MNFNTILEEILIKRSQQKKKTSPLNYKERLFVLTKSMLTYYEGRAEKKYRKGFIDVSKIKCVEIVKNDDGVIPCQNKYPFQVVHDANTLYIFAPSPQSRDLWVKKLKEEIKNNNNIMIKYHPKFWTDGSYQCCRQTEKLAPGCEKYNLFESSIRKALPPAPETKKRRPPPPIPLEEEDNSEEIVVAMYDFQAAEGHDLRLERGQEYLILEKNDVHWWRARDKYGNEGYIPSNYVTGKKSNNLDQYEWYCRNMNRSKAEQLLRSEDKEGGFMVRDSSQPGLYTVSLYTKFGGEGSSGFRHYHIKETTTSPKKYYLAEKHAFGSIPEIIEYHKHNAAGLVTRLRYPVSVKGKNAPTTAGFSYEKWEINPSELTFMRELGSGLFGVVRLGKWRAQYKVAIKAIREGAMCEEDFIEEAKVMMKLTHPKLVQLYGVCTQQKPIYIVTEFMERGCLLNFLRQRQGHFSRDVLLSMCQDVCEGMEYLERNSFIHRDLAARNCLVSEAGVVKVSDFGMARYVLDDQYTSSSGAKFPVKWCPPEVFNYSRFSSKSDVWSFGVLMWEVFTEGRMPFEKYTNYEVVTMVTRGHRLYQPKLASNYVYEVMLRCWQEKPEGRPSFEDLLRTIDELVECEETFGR
Description: as §1

[6] = target: 320 wild-type protein kinases (Homo sapiens, UniProt Q16512); conditions: singlicate
Description: as §1

[7] = target: 320 wild-type protein kinases (Homo sapiens, UniProt Q9BQI3); conditions: HRI, singlicate
Description: as §1

[8] = target: T3, 320 wild-type protein kinases (Homo sapiens, UniProt Q9UHD2); conditions: kinase TBK1, singlicate
T3 sequence (Q9UHD2 1-729): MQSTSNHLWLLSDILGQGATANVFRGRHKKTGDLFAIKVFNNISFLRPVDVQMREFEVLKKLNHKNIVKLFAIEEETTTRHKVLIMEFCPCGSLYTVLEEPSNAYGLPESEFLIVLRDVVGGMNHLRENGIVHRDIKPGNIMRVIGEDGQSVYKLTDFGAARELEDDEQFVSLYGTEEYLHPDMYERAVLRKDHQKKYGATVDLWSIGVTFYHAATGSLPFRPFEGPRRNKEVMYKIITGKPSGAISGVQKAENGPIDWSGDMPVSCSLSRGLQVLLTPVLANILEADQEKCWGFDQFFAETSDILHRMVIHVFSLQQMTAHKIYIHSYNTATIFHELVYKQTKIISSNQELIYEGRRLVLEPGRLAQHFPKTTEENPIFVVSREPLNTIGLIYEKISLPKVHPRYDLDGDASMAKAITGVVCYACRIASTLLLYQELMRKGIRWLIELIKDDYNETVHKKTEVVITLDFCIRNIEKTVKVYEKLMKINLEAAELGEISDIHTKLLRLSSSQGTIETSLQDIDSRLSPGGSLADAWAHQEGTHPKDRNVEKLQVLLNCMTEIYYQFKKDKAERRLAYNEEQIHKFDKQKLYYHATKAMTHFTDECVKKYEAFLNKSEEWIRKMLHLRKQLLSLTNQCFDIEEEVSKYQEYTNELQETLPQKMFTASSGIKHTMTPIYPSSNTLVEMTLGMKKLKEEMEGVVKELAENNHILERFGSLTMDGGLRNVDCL
Description: as §1

320 wild-type protein kinases (Homo sapiens, UniProt P22455), sequence (P22455 22-802): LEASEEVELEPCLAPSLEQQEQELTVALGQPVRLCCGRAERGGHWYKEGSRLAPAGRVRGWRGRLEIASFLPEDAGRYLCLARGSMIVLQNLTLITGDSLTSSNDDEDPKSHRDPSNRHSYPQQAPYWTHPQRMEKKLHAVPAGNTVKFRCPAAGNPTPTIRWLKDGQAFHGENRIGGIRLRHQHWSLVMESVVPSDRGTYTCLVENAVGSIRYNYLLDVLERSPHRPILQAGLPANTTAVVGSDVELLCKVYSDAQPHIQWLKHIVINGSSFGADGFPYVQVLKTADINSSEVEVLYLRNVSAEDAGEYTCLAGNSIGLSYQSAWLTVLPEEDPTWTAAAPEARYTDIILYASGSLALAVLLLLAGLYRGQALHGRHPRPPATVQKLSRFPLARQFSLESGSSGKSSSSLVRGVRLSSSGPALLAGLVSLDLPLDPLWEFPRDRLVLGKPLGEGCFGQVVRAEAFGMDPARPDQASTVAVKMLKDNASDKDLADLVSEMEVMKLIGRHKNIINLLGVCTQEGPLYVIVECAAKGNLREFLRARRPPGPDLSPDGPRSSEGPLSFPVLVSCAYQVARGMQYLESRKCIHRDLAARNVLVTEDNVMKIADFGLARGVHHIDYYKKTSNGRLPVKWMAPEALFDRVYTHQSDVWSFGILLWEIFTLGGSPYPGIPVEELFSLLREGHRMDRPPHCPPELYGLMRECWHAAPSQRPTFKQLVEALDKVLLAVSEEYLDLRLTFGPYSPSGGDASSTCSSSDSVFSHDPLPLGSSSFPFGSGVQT
320 wild-type protein kinases (Homo sapiens, UniProt Q9BQI3), sequence (Q9BQI3 whole entry): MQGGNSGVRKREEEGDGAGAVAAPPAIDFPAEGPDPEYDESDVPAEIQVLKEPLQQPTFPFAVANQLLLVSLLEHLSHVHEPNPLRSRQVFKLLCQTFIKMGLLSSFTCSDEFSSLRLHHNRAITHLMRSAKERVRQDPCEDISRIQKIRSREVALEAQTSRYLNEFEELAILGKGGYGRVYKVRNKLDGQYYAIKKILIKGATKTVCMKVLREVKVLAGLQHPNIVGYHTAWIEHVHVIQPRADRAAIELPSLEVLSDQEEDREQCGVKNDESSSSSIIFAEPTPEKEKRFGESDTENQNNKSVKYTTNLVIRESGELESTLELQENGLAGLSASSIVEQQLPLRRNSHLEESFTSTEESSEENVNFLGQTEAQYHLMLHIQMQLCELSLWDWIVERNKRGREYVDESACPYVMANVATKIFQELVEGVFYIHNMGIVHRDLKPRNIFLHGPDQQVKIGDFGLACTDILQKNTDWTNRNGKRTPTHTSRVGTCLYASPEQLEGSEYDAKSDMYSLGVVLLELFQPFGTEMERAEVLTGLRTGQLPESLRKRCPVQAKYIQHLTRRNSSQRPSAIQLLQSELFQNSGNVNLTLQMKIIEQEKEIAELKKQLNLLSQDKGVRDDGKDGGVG
320 wild-type protein kinases (Homo sapiens, UniProt Q16512), sequence (Q16512 whole entry): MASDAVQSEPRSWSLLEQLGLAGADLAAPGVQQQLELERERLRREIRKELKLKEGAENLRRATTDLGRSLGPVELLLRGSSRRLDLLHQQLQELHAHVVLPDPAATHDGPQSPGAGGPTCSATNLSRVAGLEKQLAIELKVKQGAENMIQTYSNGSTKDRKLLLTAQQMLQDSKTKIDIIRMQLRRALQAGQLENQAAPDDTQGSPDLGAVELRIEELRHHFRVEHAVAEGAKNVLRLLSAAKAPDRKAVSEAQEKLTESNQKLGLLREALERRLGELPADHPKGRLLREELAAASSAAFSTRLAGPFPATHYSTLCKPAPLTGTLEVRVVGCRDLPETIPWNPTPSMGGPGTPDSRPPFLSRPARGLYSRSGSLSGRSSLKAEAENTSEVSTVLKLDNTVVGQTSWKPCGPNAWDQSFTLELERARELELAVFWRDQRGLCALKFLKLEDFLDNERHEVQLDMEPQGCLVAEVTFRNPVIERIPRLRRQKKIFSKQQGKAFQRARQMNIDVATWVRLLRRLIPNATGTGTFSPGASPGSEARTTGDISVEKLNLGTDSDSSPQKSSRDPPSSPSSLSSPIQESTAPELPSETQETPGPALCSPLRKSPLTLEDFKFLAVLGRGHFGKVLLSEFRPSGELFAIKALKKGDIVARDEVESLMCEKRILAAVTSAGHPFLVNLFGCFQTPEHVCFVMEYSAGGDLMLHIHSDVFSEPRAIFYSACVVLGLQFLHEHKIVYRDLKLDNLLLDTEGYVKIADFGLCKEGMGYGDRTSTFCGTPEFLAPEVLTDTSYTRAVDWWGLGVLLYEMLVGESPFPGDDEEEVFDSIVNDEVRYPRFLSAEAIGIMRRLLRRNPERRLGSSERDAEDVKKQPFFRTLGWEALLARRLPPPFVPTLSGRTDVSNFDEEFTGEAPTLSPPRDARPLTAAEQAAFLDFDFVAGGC
320 wild-type protein kinases (Homo sapiens, UniProt P30291), sequence (P30291 whole entry): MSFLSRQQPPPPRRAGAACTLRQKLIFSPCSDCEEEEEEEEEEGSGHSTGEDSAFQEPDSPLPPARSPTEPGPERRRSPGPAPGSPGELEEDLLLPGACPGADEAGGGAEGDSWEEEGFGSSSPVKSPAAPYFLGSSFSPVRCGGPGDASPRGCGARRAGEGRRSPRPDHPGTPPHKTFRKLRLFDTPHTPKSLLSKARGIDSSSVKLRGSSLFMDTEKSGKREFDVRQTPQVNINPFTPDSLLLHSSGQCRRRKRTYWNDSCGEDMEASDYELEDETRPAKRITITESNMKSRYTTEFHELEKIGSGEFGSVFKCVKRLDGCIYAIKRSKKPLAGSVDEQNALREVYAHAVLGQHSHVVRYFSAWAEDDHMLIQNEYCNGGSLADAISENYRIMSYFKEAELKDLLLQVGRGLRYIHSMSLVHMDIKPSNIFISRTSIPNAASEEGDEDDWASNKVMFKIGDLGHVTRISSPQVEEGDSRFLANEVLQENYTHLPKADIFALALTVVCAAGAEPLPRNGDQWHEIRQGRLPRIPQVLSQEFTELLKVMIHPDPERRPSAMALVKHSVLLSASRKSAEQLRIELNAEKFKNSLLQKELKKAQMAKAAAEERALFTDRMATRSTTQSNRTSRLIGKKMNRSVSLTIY
320 wild-type protein kinases (Homo sapiens, UniProt P34947), sequence (P34947 whole entry): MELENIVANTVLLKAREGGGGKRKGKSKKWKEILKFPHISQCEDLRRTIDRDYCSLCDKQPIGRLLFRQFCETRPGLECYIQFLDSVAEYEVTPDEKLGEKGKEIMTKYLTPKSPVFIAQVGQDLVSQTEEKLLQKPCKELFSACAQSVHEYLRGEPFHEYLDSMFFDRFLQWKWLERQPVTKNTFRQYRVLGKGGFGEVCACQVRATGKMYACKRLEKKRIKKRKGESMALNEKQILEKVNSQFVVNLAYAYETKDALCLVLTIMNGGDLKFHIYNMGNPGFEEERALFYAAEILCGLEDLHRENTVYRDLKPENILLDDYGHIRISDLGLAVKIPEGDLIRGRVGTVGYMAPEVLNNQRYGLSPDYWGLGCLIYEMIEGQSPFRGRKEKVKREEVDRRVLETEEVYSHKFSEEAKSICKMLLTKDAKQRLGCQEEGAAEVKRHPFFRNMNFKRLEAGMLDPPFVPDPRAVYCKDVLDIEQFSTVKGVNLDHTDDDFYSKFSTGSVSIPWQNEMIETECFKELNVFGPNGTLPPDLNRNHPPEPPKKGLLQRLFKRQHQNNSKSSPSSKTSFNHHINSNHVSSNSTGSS

**Q.** How did the Residual activity ([1]; FGF-R4, 1.0E-06 M) turn out when `C#Cc1cc(Nc2ncnc3cc(I)ccc23)ccc1Cl` [Compound 41] was run?
**A.** The Residual activity was 88 % of control.

**Q.** What about the Residual activity ([1]; FGF-R4, 1.0E-07 M) of the same molecule?
**A.** The Residual activity was 96 % of control.

**Q.** What about the “Residual activity, WEE1” value ([2]; assay conc. 1.0E-06 M) of the same molecule?
**A.** The value was 87 % of control.

**Q.** And the “Residual activity, WEE1” value ([2]; assay conc. 1.0E-07 M)?
**A.** The value was 112 % of control.

**Q.** And the Residual activity ([3]; GRK5, 1.0E-06 M)?
**A.** The Residual activity was 111 % of control.

**Q.** And the Residual activity ([3]; GRK5, 1.0E-07 M)?
**A.** The Residual activity was 108 % of control.

**Q.** And the “Residual activity, TGFB-R1” value ([4]; assay conc. 1.0E-06 M)?
**A.** Its value is 81 % of control.

**Q.** What about the “Residual activity, TGFB-R1” value ([4]; assay conc. 1.0E-07 M) of the same molecule?
**A.** Its value is 86 % of control.

**Q.** What about the “Residual activity, TEC” value ([5]; assay conc. 1.0E-06 M) of the same molecule?
**A.** The value was 90 % of control.

**Q.** What about the “Residual activity, TEC” value ([5]; assay conc. 1.0E-07 M) of the same molecule?
**A.** Its value is 96 % of control.

**Q.** And the Residual activity ([6]; PRK1, 1.0E-06 M)?
**A.** The Residual activity was 96 % of control.

**Q.** What about the Residual activity ([6]; PRK1, 1.0E-07 M) of the same molecule?
**A.** The Residual activity was 96 % of control.

**Q.** And the Residual activity ([7]; 1.0E-06 M)?
**A.** Its Residual activity is 89 % of control.

**Q.** What about the Residual activity ([7]; 1.0E-07 M) of the same molecule?
**A.** The Residual activity was 108 % of control.

**Q.** What about the “Residual activity, TBK1” value ([8]; assay conc. 1.0E-06 M) of the same molecule?
**A.** Its value is 98 % of control.

**Q.** What about the “Residual activity, TBK1” value ([8]; assay conc. 1.0E-07 M) of the same molecule?
**A.** Its value is 106 % of control.

**Q.** How did the Residual activity ([1]; FGF-R4, 1.0E-06 M) turn out when `C#Cc1cc(Nc2ncnc3cc(OC)c(OC)cc23)ccc1Cl` [Compound 45] was run?
**A.** The Residual activity was 96 % of control.

**Q.** And the Residual activity ([1]; FGF-R4, 1.0E-07 M)?
**A.** Its Residual activity is 100 % of control.

**Q.** And the “Residual activity, WEE1” value ([2]; assay conc. 1.0E-06 M)?
**A.** The value was 76 % of control.

**Q.** What about the “Residual activity, WEE1” value ([2]; assay conc. 1.0E-07 M) of the same molecule?
**A.** The value was 109 % of control.

**Q.** And the Residual activity ([3]; GRK5, 1.0E-06 M)?
**A.** The Residual activity was 111 % of control.

**Q.** What about the Residual activity ([3]; GRK5, 1.0E-07 M) of the same molecule?
**A.** Its Residual activity is 107 % of control.

**Q.** What about the “Residual activity, TGFB-R1” value ([4]; assay conc. 1.0E-06 M) of the same molecule?
**A.** Its value is 75 % of control.

**Q.** And the “Residual activity, TGFB-R1” value ([4]; assay conc. 1.0E-07 M)?
**A.** The value was 84 % of control.

**Q.** And the “Residual activity, TEC” value ([5]; assay conc. 1.0E-06 M)?
**A.** The value was 92 % of control.

**Q.** And the “Residual activity, TEC” value ([5]; assay conc. 1.0E-07 M)?
**A.** The value was 108 % of control.

**Q.** And the Residual activity ([6]; PRK1, 1.0E-06 M)?
**A.** Its Residual activity is 91 % of control.

**Q.** And the Residual activity ([6]; PRK1, 1.0E-07 M)?
**A.** The Residual activity was 91 % of control.

**Q.** And the Residual activity ([7]; 1.0E-06 M)?
**A.** Its Residual activity is 87 % of control.

**Q.** And the Residual activity ([7]; 1.0E-07 M)?
**A.** Its Residual activity is 101 % of control.

**Q.** And the “Residual activity, TBK1” value ([8]; assay conc. 1.0E-06 M)?
**A.** Its value is 89 % of control.

**Q.** And the “Residual activity, TBK1” value ([8]; assay conc. 1.0E-07 M)?
**A.** The value was 106 % of control.
